Biological target: T1, RzmA-Cs (Mycetohabitans rhizoxinica, UniProt E5ATN9, R148A)
T1 construct: gene RBRH_01504; excised starter condensation (Cs) domain, residues 1-431, pET28a, E. coli BL21(DE3), N-terminal His6 tag removed by thrombin, size-exclusion purified
T1 sequence (E5ATN9 1-431 R148A): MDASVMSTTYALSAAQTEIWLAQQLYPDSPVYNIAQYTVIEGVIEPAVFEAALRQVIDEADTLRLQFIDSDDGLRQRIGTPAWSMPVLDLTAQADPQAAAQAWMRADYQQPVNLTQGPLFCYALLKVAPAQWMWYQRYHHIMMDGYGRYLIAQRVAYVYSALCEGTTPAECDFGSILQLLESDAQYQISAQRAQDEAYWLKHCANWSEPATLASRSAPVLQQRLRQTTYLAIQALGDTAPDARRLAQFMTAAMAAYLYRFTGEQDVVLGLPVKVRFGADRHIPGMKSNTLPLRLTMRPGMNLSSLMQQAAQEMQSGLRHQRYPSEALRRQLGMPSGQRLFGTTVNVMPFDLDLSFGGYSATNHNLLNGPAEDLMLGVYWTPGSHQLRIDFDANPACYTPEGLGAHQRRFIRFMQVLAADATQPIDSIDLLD
Test: isothermal titration calorimetry
Type: binding

Compound: CCCCCCCC(=O)SCCNC(=O)CCNC(=O)[C@H](O)C(C)(C)COP(=O)(O)OP(=O)(O)OC[C@H]1O[C@@H](n2cnc3c(N)ncnc32)[C@H](O)[C@@H]1OP(=O)(O)O [3d, C8-CoA]
- Kd: ~300 nM

— publication PMC7804268, “Engineering and elucidation of the lipoinitiation process in nonribosomal peptide biosynthesis” (Nature Communications, 2021)
